According to patent US20180256519A1, “COMPOSITION FOR PREVENTING OR TREATING MITOCHONDRIAL DISEASES CAUSED BY IMMUNOSUPPRESSANTS, AND IMMUNE DISEASES, CONTAINING METFORMIN” (THE CATHOLIC UNIVERSITY OF KOREA INDUSTRY-ACADEMIC …, priority 2015, published 2018):

Tests used:
[1] = system: allogeneic reactive T cells; assay: Allogeneic reactive T cell proliferation, mixed lymphocyte reaction ([3H]-thymidine uptake); assay type: cell-based, mouse (Balb/c, C57BL/6); conditions: metformin 1000 uM, rapamycin 1 nM or 100 nM; 3 days
Protocol: CD4+ T cells (2×10^5 cells/well) from normal donors (Balb/c, responder) and splenocytes (2×10^5 cells/well) with T cells removed, which were derived from irradiated recipients (syngeneic) or donors (C57BL/ 6, stimulator, allogeneic), were added to each well of a 96-well plate, followed by mixed incubation. Here, for the allogeneic reaction, the cells were treated with metformin (1000 uM) and rapamycin (1 nM or 100 nM) according to experimental conditions, followed by incubation for 3 days. On the last day of the incubation, [^3H]-thymidine was added, followed by additional incubation for 18 hours, and the [^3H]-thymidine uptake of cells was measured by the Liquid Scintillation Counter (Beckman, USA), and expressed as cpm. Statistical assay was conducted by using Graph prism (t-test, ANOVA), and values of p<0.05 were considered statistically significant.

[2] = system: IFN-γ; assay: IFN-γ secretion by allogeneic reactive T cells in mixed lymphocyte reaction (ELISA); assay type: cell-based, mouse (Balb/c, C57BL/6); conditions: metformin 1000 μM, rapamycin 1 nM or 100 nM; 3 days
[3] = system: Treg cells; assay: Treg cell activity in splenocytes under anti-CD3 activation (flow cytometry); assay type: cell-based, C57BL/6 mice; conditions: metformin 1000 μM, rapamycin 100 nM; 3 days; anti-CD3 0.5 μg/ml
Protocol: Splenocytes obtained from normal C57BL/6 mice were added at 1×10^6 cells in the 24-well plate, and treated with metformin (1000 μM) or rapamycin (100 nM) according to experimental conditions, followed by incubation for 3 days, under anti-CD3 activation conditions (0.5 μg/ml). For flow cytometry, the cells were treated with anti-CD4-percp antibody and anti-CD25-APC antibody, followed by incubation at 4[…] for 30 minutes, and then the cells were subjected to permeabilization, and then reacted with anti-Foxp3-PE. For analysis of Treg activity, the cells expressing the CD4+CD25+Foxp3+ marker were gated and analyzed. The results were expressed by a bar graph showing the proportion of Foxp3+CD25+ cells occupying in the cultured all CD4+ cells.

[4] = system: LPS-stimulated splenocytes; assay: Inflammatory cytokines secreted in LPS-stimulated splenocytes (ELISA); assay type: cell-based, C57BL/6 mice; conditions: LPS 100 ng/ml; metformin 1000 uM, rapamycin 100 nM; 3 days
Protocol: Splenocytes obtained from normal C57BL/6 mice were added into a 24-well plate (1×10^6 cells/well), and stimulated by LPS (100 ng/ml), and then treated with metformin (1000 uM) or rapamycin (100 nM) according to experimental conditions, followed by incubation for 3 days. […] Statistical analysis was conducted by using Graph prism (t-test, ANOVA), and values of p<0.05 were considered statistically significant.

[5] = system: Splenocytes obtained from normal C57BL/6 mice; assay: MTT non-specific cytotoxicity in T cell activation conditions; assay type: cell-based; conditions: metformin 1000 μM, rapamycin 100 nM; 3 days; anti-CD3 0.5 μg/ml
Protocol: (§1) Splenocytes obtained from normal C57BL/6 mice were added at 2×10^5 cells in the 96-well plate, and treated with metformin (1000 μM) or rapamycin (100 nM) according to experimental conditions, followed by incubation for 3 days, under anti-CD3 activation conditions (0.5 μg/ml). For MTT analysis, 3-(4,5-dimethyl-thiazol-2-yl)-2,5-diphenyltetrazolium bromide was added 4 hours before cell harvest, followed by incubation for 4 hours, and then each well was treated with DMSO, and the absorbance was measured at the wavelength of 540 nm.

[6] = system: LPS-stimulated splenocytes; assay: Immunoglobulin (IgG) in culture liquid of LPS-stimulated splenocytes (ELISA); assay type: cell-based, mouse; conditions: LPS 100 ng/ml; metformin 1000 uM, rapamycin 100 nM
Protocol: Splenocytes obtained from normal C57BL/6 mice were added into a 24-well plate (1×10^6 cells/well), and stimulated by LPS (100 ng/ml), and then treated with metformin (1000 uM) or rapamycin (100 nM) according to experimental conditions, followed by incubation for 3 days. […] Statistical analysis was conducted by using Graph prism (t-test, ANOVA), and values of p<0.05 were considered statistically significant.
Thereafter, the level of IgG present in the culture liquid was measured by ELISA.

[7] = system: IL-17; assay: IL-17 secretion by splenocytes in T cell activation conditions (ELISA); assay type: cell-based, C57BL/6 mice; conditions: metformin 1000 uM, rapamycin 100 nM; 3 days; anti-CD3 0.5 μg/ml; vs Nil
Protocol: as §1
The cells were treated with metformin (1000 uM) or rapamycin (100 nM) according to experimental conditions, followed by incubation for 3 days, and then the amount of IL-17 present in the culture liquid was measured by ELISA.

[8] = system: Synovial cells isolated from patients with rheumatoid arthritis (RA); assay: Measurement of mitochondrial respiration (oxygen consumption rate); assay type: cell-based, human; conditions: rapamycin 100 nM
Protocol: The present inventors examined the effect of metformin on rapamycin-induced mitochondrial respiration deterioration. The cells were treated with rapamycin (100 nM) alone or co-treated with rapamycin (100 nM) and metformin (1 mM), and then the mitochondrial respiratory rate was examined through the measurement of the oxygen consumption rate. Oligomycin and FCCP treatment conditions were the same.

[9] = system: collagen-induced arthritis mouse models; assay: Glucose tolerance test and insulin tolerance test in arthritis animal models; assay type: in vivo; conditions: arthritis mice after 12 weeks, rapamycin 1 mg/kg
Protocol: The intraperitoneal glucose tolerance test was performed by intraperitoneal injection of glucose at 1 g/kg of body weight after fasting for 12 hours. The insulin tolerance test was performed at 30 minutes interval after the subcutaneous injection of […] at 1 U/kg of body weight.

[10] = system: NIH3T3 cells; assay: Analysis of mitochondrial membrane potential (JC-1 staining); assay type: cell-based; conditions: 72-hr incubation; rapamycin 1 nM, metformin 200 uM or 1 mM
Protocol: For JC-1 staining, the cells were incubated in JC-1, which had been diluted in DMEM to a final concentration of 100 nM, at 37 °C for 15 minutes, and then the exchange into new DMEM medium was conducted, followed by observation by fluorescent microscopy.

[11] = system: Sprague-Dawley rats; assay: Rapamycin-induced diabetic symptoms and metformin co-administration in rats (body weight, urine volume, IPGTT, ITT); assay type: in vivo, rat
Protocol: As experimental animals, Sprague-Dawley rats with 200-220 grams were used. The animals were fed with a 0.05% low-salt diet, and the experiment was conducted for a total of 6 weeks while drugs were administered according to experimental conditions (FIG. 5). […] Rapamycin dissolved in olive oil was subcutaneously injected into the rapamycin administered alone group (Rapamycin) and the co-administered group (Rapa+Met) at a dose of 0.3 mg/kg of body weight every day for six weeks. Metformin was orally administered at a dose of 250 mg/kg of body weight every day for 2.5 weeks from the 3.5 weeks of rapamycin administration. Distilled water (DW, 3 mL/kg) instead of metformin was orally administered into the rapamycin administered alone group and the control group. The body weight and 24-hr urine volume of the control and experimental groups were measured six weeks after the start of the experiment FIGS. 6A and 6B. The urine volume was measured in the metabolic cage. The animals of each group were tested for the intraperitoneal glucose tolerance test (IPGTT) and the insulin tolerance test (ITT), and the change in blood glucose level over time was observed FIGS. 7A, 7B, 8A and 8B). The intraperitoneal glucose tolerance test (IPGTT) was performed by intraperitoneal administration of 1.5 g/kg of body weight of glucose after fasting. The insulin resistance test was carried out such that the blood glucose level was measured at 30-min intervals after subcutaneous injection of insulin at 0.8 U/kg of body weight following 5-hr fasting. The quantitative index (area under the curve of glucose, AUCg) was derived using a graph of blood glucose level change per hour, and was expressed as a bar graph. Data were expressed as mean value±standard deviation, and statistical significance was determined by student's t-test.

[12] = system: NIH3T3 cells; assay: Analysis of mitochondrial content (MitoTracker staining); assay type: cell-based; conditions: 72-hr incubation; rapamycin 1 nM, metformin 200 uM or 1 mM
Protocol: The mitochondria were observed by fluorescent microscopy for each experimental condition. Specifically, the MitoTracker was diluted in DMEM medium to a concentration of 100 nM, and then added on the NIH3T3 plate, followed by incubation at 37° C. for 15 minutes and washing with PBS. Thereafter, for α-tubulin staining, the cells were fixed with acetone and methanol (1:1) for 15 minutes, and then washed with PBS for 15 minutes.

[13] = rapamycin 0.3 mg/kg s.c. daily 6 weeks, metformin 250 mg/kg oral daily from 3.5 weeks, vs control group (VH)

| Structure (SMILES) | allogeneic reactive T cell proliferation ([3H]-thymidine uptake, cpm) [1] | secretion of IFN-γ [2] | Treg activity (proportion of Foxp3+CD25+ cells in CD4+ cells) [3] | concentration of IL-6 present in the culture liquid [4] | concentration of TNF-α present in the culture liquid [4] | non-specific cytotoxicity (MTT) [5] | concentration of immunoglobulin (IgG) present in the culture liquid [6] | amount of IL-17 present in the culture liquid [7] | increase in mitochondrial respiratory rate by FCCP ([8]; FCCP 3 uM, metformin 1 mM) | mitochondrial respiration capacity (oxygen consumption rate) ([8]; before the treatment with oligomycin, vs control group) | blood glucose level in intraperitoneal glucose tolerance test ([9]; glucose 1 g/kg i.p. after 12 h fasting, metformin 50 mg/kg) | glucose level in insulin tolerance test, start point of measurement [9] | blood glucose level in insulin tolerance test, after the start point ([9]; metformin 50 mg/kg, vs control group (Vehicle)) | mitochondrial membrane potential (JC-1 staining) [10] | blood glucose level in intraperitoneal glucose tolerance test (IPGTT) ([11]; glucose 1.5 g/kg i.p. after fasting, rapamycin 0.3 mg/kg, metformin 250 mg/kg) | blood glucose level in insulin tolerance test (ITT) ([11]; insulin 0.8 U/kg s.c. after 5-hr fasting, rapamycin 0.3 mg/kg, metformin 250 mg/kg) | 24-hr urine volume [11, 13] | body weight [11, 13] | mitochondrial content (MitoTracker) [12] |
| --- | --- | --- | --- | --- | --- | --- | --- | --- | --- | --- | --- | --- | --- | --- | --- | --- | --- | --- | --- |
| CN(C)C(=N)NC(=N)N [metformin] | reduced the cpm values | reduced | increased | reduced | reduced | no non-specific cytotoxicity | reduced | reduced |  |  |  |  |  |  |  |  |  |  |  |
| CO[C@H]1C[C@@H]2CC[C@@H](C)[C@@](O)(O2)C(=O)C(=O)N2CCCC[C@H]2C(=O)O[C@H]([C@H](C)C[C@@H]2CC[C@@H](O)[C@H](OC)C2)CC(=O)[C@H](C)/C=C(\C)[C@@H](O)[C@@H](OC)C(=O)[C@H](C)C[C@H](C)/C=C/C=C/C=C/1C [rapamycin] | reduced the cpm values | reduced | increased | reduced | reduced | no non-specific cytotoxicity | reduced | reduced | remarkably low | reduced respiration capacity compared with the control group | the highest | the highest | maintained at similar levels | not normally maintained | highest blood glucose level among the three groups | highest blood glucose level among the three groups | significantly increased | significant reductions | reduced |
